# Source: patent US20100138935A1, “Detection of cellular stress” (priority 2004, published 2010)
# Tests used:
# [1] = tested on: HO-1-LacZ (HOZ) transgene; assay: LacZ transgene expression in HO-1-LacZ (HOZ) reporter mice; format: in vivo, mouse
# Procedure: Each test compound was dissolved in the appropriate vehicle solution and administered by intraperitoneal injection (i.p.) at a dose volume of 10 ml/kg. Wherever possible, both naive (untreated) and vehicle-treated controls were used. If a test item whose toxicity in the mouse is poorly characterised was to be used, a dose-ranging experiment was conducted prior to the main experiment. The test item was administered to a single mouse which was monitored for any adverse effects 6-8 hours and 24 hours later. If the single dose ranging mouse tolerated the treatment, the remaining mice were administered the test item according to the protocol.
# Two slices of tissue (˜2 mm thickness) were removed for histochemical analysis of LacZ expression according to methods described below.
# Tissues were washed with PBS and prefixed in 0.2% glutaraldehyde in PBS containing 0.1M MgCl2 and 5 mM EDTA, pH 7.3, for 4 hours at 4° C. on a shaker. After fixation, the tissues were transferred to 20% Sucrose solution and dehydrated overnight at 4° C. The next day they were embedded in cryo-M-bed medium on cork discs and lowered slowly into liquid nitrogen then transferred to −80° C. until sections were required.
# Cryostat sample and chamber temperatures were set to −30° C. The sample to be sectioned was placed in the cryostat one hour prior to sectioning to allow equilibration at the appropriate temperature. Frozen sections (10 μm) were cut and placed on aminopropyltriethoxysilane (APES) coated slides.
# Prior to staining, sections were incubated in 0.2% glutaraldehyde (as above) for 10 minutes at room temperature then washed twice (5 min each) in PBS containing 2 mM MgCl2, 0.01% sodium deoxycholate and 0.02% % Nonidet-P40. Sections were then […] the same wash solution containing 1 mg/ml X-gal, 5 mM potassium ferrocyanide and 5 mM potassium ferricyanide overnight at 37° C. then washed twice in PBS for 5 min, allowed to air dry and mounted in aqueous mounting medium (Hydromount). Slides were evaluated and photographed. • Frozen Method 2
# Tissues were excised, immediately placed into chilled 4% paraformaldehyde containing 0.1% glutaraldehyde and 2 mM MgCl2 in PBS, and fixed in the above solution for 3 hours at 2-8° C. with gentle shaking. Fixed tissues were washed at 2-8° C. for 3×5 minutes with chilled PBS containing 2 mM MgCl2 and dehydrated overnight at 2-8° C. in PBS containing 2 mM MgCl2 and 30% (w/v) sucrose overnight The next day dehydrated tissues were embedded in OCT embedding medium using an isopentane/dry ice bath. Embedded tissues were stored at −70° C. until they could be cryosectioned.
# Frozen sections were washed three times for 5 minutes in PBS containing 2 mM MgCl2 at 2-8° C. then 3×30 min in detergent wash (PBS containing 2 mM MgCl2 0.01% Nonidet P40 and 0.1% Sodium Deoxycholate) at 2-8° C. They were then stained overnight in PBS containing 2 mM MgCl2, 0.02% Nonidet P40, 0.1% Sodium Deoxycholate, 5 mM Potassium ferrocyanide, 5 mM Potassium ferricyanide, and 0.1% X-gal at 37° C. The next day, the slides were washed three times for 5 minutes in PBS containing 2 mM MgCl2 followed by three times for 5 minutes in PBS at room temperature. They were equilibrated with 100% ethanol (5 min) and counterstained with Eosin for 1 min at room temperature. Following dehydration and mounting they were evaluated and photographed. • Whole Mount Method
# Tissue specimens that had been prefixed in fresh 4% paraformaldehyde were stained immediately using the procedure for “Whole Mount X-Gal Histochemistry of Transgenic Animal Tissues” (see http://www.rodentia.com/wmc/docs/lacZ bible.html), summarised below) was followed, and the post-fixed tissues were transferred to 70% (v/v) ethanol.
# Following fixation for one hour in 4% paraformaldehyde, tissues were rinsed three times, for thirty minutes each, with rinse buffer (100 mM sodium phosphate (pH 7.3), 2 mM MgCl2, 0.01% sodium deoxycholate, 0.02% NP-40) at room temperature. […]
# [2] = tested on: HOZ mice; assay: Plasma AST as a marker of hepatotoxicity in HOZ mice; format: in vivo, mouse
# Procedure: Terminal blood samples were taken by cardiac puncture into lithium/heparin-coated tubes for preparation of plasma. Tissues, as defined in each protocol, were routinely dissected as follows:
# Following removal into tubes suitable for plasma preparation, venous blood samples were mixed on a roller for 10 minutes then cooled on ice. Red blood cells were removed by centrifugation at 2,000 rpm for 10 minutes at 8-10° C. The supernatant (plasma) was transferred to a second tube and stored at −70° C. until required for analysis.
# Plasma samples were analysed for appropriate analytes on a Roche autoanalyser (Cobas Integra 400) according to the manufacturer's instructions. The routine markers measured included: (for liver damage) plasma alanine aminotransferase (ALT), aspartate aminotransferase (AST) and alkaline phosphatase (ALP) and (for kidney damage) plasma creatinine and blood urea nitrogen (BUN).
# Two plasma enzyme markers, ALT and AST, were used as markers of hepatotoxicity in HOZ mice treated with cadmium chloride or sodium arsenite. […]
smiles,measurement,setting,value
"[Cl][Cd][Cl] [Cadmium Chloride, cadmium chloride]",expression of the HOZ gene in kidney,"[1]; 8 mg/kg, 8 hours after dosing",detectable expression
same,LacZ expression in brain,"[1]; HOZ mice, with or without cadmium chloride treatment",no evidence of LacZ expression
same,LacZ staining in liver,"[1]; HOZ mouse, 10 mg/kg i.p. in saline, 24 hours after dosing",intense blue staining
same,LacZ staining in kidney (proximal convoluted tubules),"[1]; HOZ mouse, 10 mg/kg i.p. in saline, 24 hours, versus naive and saline controls",frequency of stained PCTs was much higher
same,HOZ gene expression in liver,"[1]; either sex, 8 mg/kg i.p., 24 hours",clearly apparent
same,LacZ staining in liver,"[1]; female, 4 mg/kg i.p., 8 hours",weak LacZ staining
same,HOZ gene expression in liver,"[1]; female, 2-8 mg/kg i.p., 8 hours",no consistent evidence of HOZ expression
same,HOZ gene expression in liver,"[1]; female, lower doses (2, 4 mg/kg) i.p., 24 hours",none was evident
same,HOZ gene expression in liver,"[1]; male, 8 mg/kg i.p., 8 hours",High levels of HOZ gene expression
same,HOZ gene expression in liver,"[1]; male, lower doses (2, 4 mg/kg) i.p., 8 hours",lower levels of expression
same,HOZ gene expression in liver,"[1]; male, lower doses (2, 4 mg/kg) i.p., 24 hours",some HOZ expression was also apparent
same,AST,"[2]; HOZ mouse, 10 mg/kg i.p., 24 hours",4643.1 U/L
same,Plasma AST,"[2]; female, 1 mg/kg, 8 hours",87.6 u/L
same,Plasma AST,"[2]; female, 1 mg/kg, 24 hours",87.5 u/L
same,Plasma AST,"[2]; female, 2 mg/kg, 8 hours",80.4 u/L
same,Plasma AST,"[2]; female, 2 mg/kg, 24 hours",104.7 u/L
same,Plasma AST,"[2]; female, 4 mg/kg, 8 hours",108.5 u/L
same,Plasma AST,"[2]; female, 4 mg/kg, 24 hours",89.1 u/L
same,increase in plasma AST,"[2]; female, 4 mg/kg, at either time point (8, 24 hours)",no increase in plasma AST was observed
same,Plasma AST,"[2]; female, 8 mg/kg, 8 hours",13425.6 u/L
same,Plasma AST,"[2]; female, 8 mg/kg, 24 hours",8097.6 u/L
same,increase in plasma AST,"[2]; female, 8 mg/kg, after 8 hours",237 fold
same,increase in plasma AST,"[2]; female, 8 mg/kg, after 24 hours",97 fold
same,Plasma AST,"[2]; male, 1 mg/kg, 8 hours",100.2 u/L
same,Plasma AST,"[2]; male, 1 mg/kg, 24 hours",63.1 u/L
same,Plasma AST,"[2]; male, 2 mg/kg, 8 hours",66.4 u/L
same,Plasma AST,"[2]; male, 2 mg/kg, 24 hours",56.4 u/L
same,Plasma AST,"[2]; male, 4 mg/kg, 8 hours",132.3 u/L
same,Plasma AST,"[2]; male, 4 mg/kg, 24 hours",123.0 u/L
same,Plasma AST,"[2]; male, 8 mg/kg, 8 hours",92.4 u/L
same,Plasma AST,"[2]; male, 8 mg/kg, 24 hours",353.8 u/L
same,increase in AST,"[2]; male, 8 mg/kg, 24 hours after treatment",3.8 fold
